From patent US6133279A, “Therapeutic agents for renal diseases and organ preservatives” (Chugai Seiyaku Kabushiki Kaisha, priority 1996, dated 2000)
Read-outs that look alike come from different tables or passages of the source.

Tests used:
[1] = system: porcine kidney-derived LLC-PK1 cells; assay: Protective effect against oxidized LDL-induced injury of porcine kidney-derived LLC-PK1 cells (1); type: cell-based; conditions: Sus scrofa, LLC-PK1, 6 h, mean ± standard deviation, read-out: Cytoprotection rate (%)
Method: For the purpose of evaluating in vitro cytoprotective effect of the compounds of the present invention, a cytoprotective study was performed using porcine kidney-derived LLC-PK1 cells (ATCC-CRL-13921) injured by oxidized low-density lipoprotein (oxidized LDL).
Oxidized LDL was prepared by incubating 1 mg/ml of rabbit LDL in PBS (-) in the presence of 10 μM CuSO4 at 37° C. for 24 hours. Cell culture was carried out by plating 1.25×10^4 cells/250 μl/well on a 48-well plate containing M199 medium containing 3% FBS. Test compounds were dissolved or suspended in ethanol and added to the wells in an amount of 1.25 μl/well to a concentration of 0.1, 1 or 10 μM in each well. After 16 hours or immediately after the addition of the compounds, oxidized LDL was added to the wells. Probucol, α-tocopherol and Trolox which is a water-soluble analogue of α-tocopherol were used as reference control compounds. Oxidized LDL was diluted twice with saline and then added to the wells in an amount of 62.5 μl/well to a concentration of 100 μg/ml and the cells were cultured for 6 hours after addition of the oxidized LDL. Then, 162.5 μl/well of the culture medium were collected and measured for the lactate dehydrogenase (LDH) level (LD-L: SIGNA DIAGNOSTICS) having leaked into the medium.
The magnitude of cytoprotective effect was expressed as the cytoprotection rate which was determined by calculating the data assuming that the magnitude in wells containing oxidized LDL is 0% and that the magnitude in wells containing saline is 100%.

[2] = system: puromycin-induced nephrosis model; assay: Puromycin-induced nephrosis (2), postadministration (in vivo); set-up: species or system rat (male SD rats); conditions: 200 mg/kg oral once a day from the day following puromycin; for Creatinine: control 0.82 ± 0.07; for Urine nitrogen: control 30.74 ± 10.95; for Creatinine clearance: control 824 ± 108
Method: Effect of the compounds of the present invention on an in vivo renal disease was studied using a puromycin-induced nephrosis model. A puromycin-induced renal failure model was prepared from rats in groups of 5-8 each (6 week-old male SD rats) fed with high-fat diet. High-fat diet feeding was started by free access to high-fat diet (cholesterol level 1.25%) from 7 days before puromycin treatment. Puromycin (puromycin aminonucleoside, SIGMA Chemical Co.) treatment was performed by intraperitoneal administration at a dose of 100 mg/kg. Test compounds were administered as a solution in soybean oil via oral route (4 ml/kg). Control group was orally administered soybean oil alone. Probucol and a water-soluble α-tocopherol analogue, Trolox, were used as reference control compounds. The compounds were orally administered once a day from the following day of the puromycin treatment. Renal functions were determined by using urine and blood samples. The volume of urine, urea nitrogen level and creatinine levels of serum and urine were evaluated to calculate creatinine clearance as an indication of renal functions.

[3] = literature; cited from earlier work
[4] = compound added 16 hours before adding oxidized LDL
[5] = compound added immediately before adding oxidized LDL

Compound	inhibition at 0.1 µM [1, 4]	inhibition at 0.1 µM [1, 5]	inhibition at 1 µM [1, 4]	inhibition at 1 µM [1, 5]	inhibition at 10 µM [1, 4]	inhibition at 10 µM [1, 5]	Creatinine [2]	Urine nitrogen [2]	Creatinine clearance [2]	effect on renal disease models / renal functions (in words) [3]
CC(C)(Sc1cc(C(C)(C)C)c(O)c(C(C)(C)C)c1)Sc1cc(C(C)(C)C)c(O)c(C(C)(C)C)c1 [Probucol, probucol, reference compound]	22.5 ± 15.1%	-1.8 ± 9.7%	36.4 ± 13.3%	0.3%	99.7 ± 1.1%	17 ± 7.8%	0.98 ± 0.13 mg/dL	37.53 ± 7.53 mg/dL	838 ± 187 mL/day	–
CC(C)(C)c1cc2c(c(C(C)(C)C)c1O)CC(Cc1ccccc1)(Cc1ccccc1)O2 [Example 16, 4,6-Di-t-butyl-2,2-dibenzyl-5-hydroxy-2,3-dihydrobenzofuran]	12 ± 7.5%	-36.7 ± 6.6%	94.5 ± 4.9%	74.4%	98.3 ± 0.3%	99.6 ± 0.1%	0.73 ± 0.06 mg/dL	31.82 ± 10.84 mg/dL	925 mL/day	–
Cc1c(C)c2c(c(C)c1O)CCC(C)(CCCC(C)CCCC(C)CCCC(C)C)O2 (stereo not drawn) [α-tocopherol, reference compound]	7.2 ± 2.2%	-2.8%	72.1 ± 13.8%	8.2 ± 5.7%	98.9 ± 1%	2.7 ± 2.3%	–	–	–	its effect is not sufficient
CC(C)(C)c1cc2c(c(C(C)(C)C)c1O)CC1(CCCCCC1)O2 [Example 20, 4,6-Di-t-butyl-5-hydroxy-2,3-dihydrobenzofuran-2-spiro-1'-cycloheptane]	-11.3 ± 8.5%	-15.8 ± 8%	98.6 ± 1.2%	99.9%	106 ± 1.2%	102 ± 4.7%	0.61 ± 0.08 mg/dL	25.40 ± 10.28 mg/dL	1144 ± 172 mL/day	–
Cc1c(C)c2c(c(C)c1O)CCC(C)(C(=O)O)O2 (stereo not shown) [Trolox, reference compound]	0.4 ± 1.3%	0%	6.4 ± 10.6%	-7.1%	17.5 ± 16.9%	-4.9 ± 6.3%	0.96 ± 0.14 mg/dL	31.91 ± 11.93 mg/dL	660 mL/day	–
